Where “and” joins values, the source holds several entries; their conditions need not be identical. Identical values can stand only once. Counter-ions that a name gives are not always drawn.
Columns and labels:
[1] = Example 13: screening of excipients that inhibit precipitation or gelation of sertraline lactate when chloride is present; format: physicochemical; settings: sertraline lactate with excipient
[2] = Example 15: sertraline dissolution rate from packed powder in gastric buffer; format: physicochemical
Description: The sample tubes were spun at 14K G for 5 minutes in a microcentrifuge to pack the powder. 150 μl gastric buffer was added to the packed powder and the samples were gently agitated,then spun at 14K G in a microcentrifuge for 2 minutes. The samples were then removed from the microcentrifuge and allowed to stand undisturbed until the solution was removed.

[3] = Mechanical properties of compacts (compression, indentation hardness, moduli, tensile strength); format: physicochemical; settings: for Compression Stress / Solid Fraction: Compact Preparation; for Dynamic Indentation Hard. / Reduced Elastic Modulus: Dynamic Indentation; for Tensile Strength: Tensile Fracture
Description: These indices are derived from critical measurements made to assess the mechanical response of the compacts (measurements are not made during the process of compaction).
The most critical material properties that influence powder compaction are its ductility, elasticity and tensile strength. Ductility is determined by pendulum impact and is a dynamic indentation test to determine the hardness of the compact. The hardness of the compound is inversely related to its ductility.
Elasticity values of greater than 8 GPa are high, values between 1-8 GPa are moderate and values less than 1 GPa are low.
Tensile strength is measured by transverse compression of the compacts until it results in tensile fracture. It is desirable to have high tensile strength. Tensile strength of greater than 2 MPa is high, values in the range of 0.8-2.0 Mpa are moderate and values less than 0.8 MPa are low.
Hiestand's ITP is comprised of the following characteristics: brittle fracture index (herein termed BFI), best case bonding index (herein termed bBI), worst case bonding index (herein termed wBI) and strain index (herein termed SI).
The BFI is a measure of the propensity of a compact to break or fragment under stress from existing cracks and holes in the compact. BFI is used by the skilled person to indicate the propensity of a tablet to break or fragment during processing (i.e. failure) such as during ejection from a tablet press or during film coating.
Bonding index is an estimate of the capacity of a compact to retain interparticulate bonds during elastic recovery. […] The estimate of plastic deformation is used in calculating the bonding index. The estimation of bonding index is important since decompression is a major step in the manufacture of tablets. The worst case bonding index (wBI) and best case bonding index (bBI) assess the ability of the interparticulate bonds that have been formed during compression to survive the release of strain energy during compression. Under conditions of high speed manufacture of tablets wBI is more applicable than bBI. Bonding index values of greater than or equal 2 are excellent; values between 0.8-1.9 are good; values between 0.3-0.7 are marginal and values less than 0.3 are poor.
The strain index is a measure of the elastic recovery of the compact. It can also be stated to be a measure of be extent of elastic recovery during the unloading phase.

[4] = Example 10: solubility of sertraline hydrochloride in organic acid solutions; settings: water (no acid excipient), thermodynamic from solid
[5] = system: healthy male human subjects; assay: Example 6 Study II: emesis, regurgitation and PK/PD plots
[6] = Example 2: plasma sertraline pharmacokinetics, 200 mg bolus vs 7 hr divided dosing; format: in vivo; settings: male, human, oral, mean
Description: (§1) In a double-blind, randomized, placebo controlled parallel group study, healthy male human subjects were divided into three groups. […] The tablets were administered with 50 ml water. Group A also received a 50 ml placebo solution every hr for 7 hr. The placebo solution contained lactose and menthol. […] Group B also received two placebo tablets at the fist dosing time. Group C (n=15) received placebo tablets and placebo solutions at the appropriate time points. All subjects were dosed after an overnight fast.

[7] = system: healthy male human subjects; assay: Example 1: side effect visual analogue scales and emesis; format: in vivo; settings: 15 hr divided dose regimen (15 subjects)
Description: (§2) In a double-blind, randomized, placebo-controlled parallel group study, healthy male human subjects were divided into three groups. […] The tablets were administered with 50 ml water. […] Group B also received two placebo tablets at the fist dosing time. Group C, referred to as the “placebo group”, received placebo tablets and placebo solutions at the appropriate corresponding time points. All subjects were dosed after an overnight fast.
Prior to dosing and to each blood sampling time, each subject filled out a questionnaire, which consisted of a series of “Visual Analogue Scales” in which the subject was required to rate, on a scale of 0-10, the severity of certain potential side effects. The subjects were instructed that “0” indicated an absent effect and “10” indicated the worst possible effect.
Analysis of side effect visual-analogue-scale data was carried out as follows. […] The non-gastrointestinal side effects dizziness and tremor were also evaluated.

[8] = Example 1: plasma sertraline pharmacokinetics, 200 mg bolus vs 15 hr divided dosing; format: in vivo; settings: male, human, oral
Description: as §2
Tmax is the time at which Cmax is achieved.

[9] = system: healthy male human subjects; assay: Example 2: side effect visual analogue scales and emesis; format: in vivo; settings: 200 mg bolus dose group (n=14)
Description: as §1
For three side effects evaluated at 30 time points, a total of 4,500 individual visual-analogue-scale evaluations were obtained.

[10] = system: healthy male human subjects; settings: Study I
Description: In a subset of a larger double-blind, randomized, placebo-controlled parallel group study, healthy male human subjects were divided into two groups (Study I). […] The tablets were administered with 50 ml water. Group B received two placebo tablets. All subjects were dosed after an overnight fast.
The subjects were instructed that “0” indicated an absent effect and “10” indicated the worst possible effect. The subjects were instructed to interpolate between 0 and 10 for moderate side effects.
A total of 30 subjects completed Study I: 15 each in Groups A and B. For each side effect evaluated at 30 time points, a total of 900 individual visual-analogue-scale evaluations were obtained.

## O=C1O[C@H]([C@@H](O)CO)C(O)=C1O [Ascorbic acid]
[1]; NaCl 100 mM
  Observation After NaCl Addition: precipitate

## CCCCCCCCCCCCCCCC(=O)OC[C@H](O)[C@H]1OC(=O)C(O)=C1O [Ascorbyl palmitate]
[2]; excipient 6.8, no acid, lactose 74.2, lactate 19 wt %
  Sertraline Dissolution Rate: 4.3 mg/ml-min

## N[C@@H](Cc1c[nH]cn1)C(=O)O [Histidine]
[1]; NaCl 150 mM
  Final Sertraline Concentration: 110 mg/mL
  Observation After NaCl Addition: slight precipitate

## CCCCCCCCCCCCCCCCCC(=O)OCC(O)CO (stereo not shown) [Imwitor ® 191, Glyceryl Monostearate]
[2]; excipient 5.0, ascorbic 49.5, lactose 12.5, CaCO3 1.0, lactate 14 wt %
  Sertraline Dissolution Rate: 8.0 mg/ml-min

## CCCCCCCCCCCC(=O)OCC(O)CO (stereo not shown) [Imwitor ® 312, Glyceryl Monolaurate]
[2]; excipient 5.0, ascorbic 49.5, lactose 12.5, CaCO3 5, lactate 14 wt %
  Sertraline Dissolution Rate: 20.9 mg/ml-min
[2]; excipient 6.8, aspartic 74.2, lactate 19 wt %
  Sertraline Dissolution Rate: 5.3 mg/ml-min

## CCCCCCCC/C=C\CCCCCCCC(=O)OCC(O)CO (stereo not shown) [Myrerol ® (18-99), Glyceryl Monooleate]
[2]; excipient 5.0, ascorbic 49.5, lactose 12.5, lactate 14 wt %
  Sertraline Dissolution Rate: 6.4 mg/ml-min

## CN[C@H]1CC[C@@H](c2ccc(Cl)c(Cl)c2)c2ccccc21.C[C@H](O)C(=O)O [Sertraline L-lactate]
[2]; no candidate excipient, ascorbic 51.0, lactose 20, lactate 14 wt %
  Sertraline Dissolution Rate: 3.5 mg/ml-min
[2]; sertraline lactate 100 wt %, no excipient
  Sertraline Dissolution Rate: 0.9 mg/ml-min
[3]
  tensile strength (in words): very high
  Compression Stress: 52.8 (0.7) Mpa
  Solid Fraction: 0.862
  Dynamic Indentation Hard.: 81.6 (1.6) Mpa
  Reduced Elastic Modulus: 7.4 (0.6) GPa
  Tensile Strength: 0.56 (0.02) Mpa
[3]; Quasistatic Indentation
  Elastic Modulus: 2.0 (0.2) Gpa
  Quasistatic Indentation Hard.: 31.1 (1.4) Mpa
  Shear Modulus: 113.9 (4.6) Mpa

## CN[C@H]1CC[C@@H](c2ccc(Cl)c(Cl)c2)c2ccccc21 [Sertraline hydrochloride]
[4]
  solubility: 25 mg/mL

## CN[C@H]1CC[C@@H](c2ccc(Cl)c(Cl)c2)c2ccccc21 [Sertraline]
[5]; 200 mg dose group
  subjects who exhibited regurgitation: four
  subjects with emesis: Four
  time of emesis in individual subjects: 2.6 h and 2.8 h and 3.8 h
[5]; the four subjects with regurgitation
  individual PK/PD plots for regurgitation: clockwise hysteresis
[6]; 25 mg per hr for 7 hr
  Tmax: 10.4 h
[6]; 25 mg solution per hr for 7 hr (eight doses, 200 mg)
  Cmax: 46 ng/mL
[7]
  emetic episodes: no emetic episodes
[8]
  Cmax: 32 ng/mL
  Tmax: 16 h
[9]
  emetic events: 4
[10]; 200 mg bolus dose
  PK/PD plot of average nausea score vs plasma sertraline concentration (FIG. 6): clockwise hysteresis
  diarrhea score vs plasma sertraline concentration curve: clockwise hysteresis
[10]; post-dose
  time of maximum diarrhea score: 3 h

## Sertraline acetate
[3]
  elastic modulus (in words): relatively low
  Compression Stress: 36.7 (2.5) Mpa
  Solid Fraction: 0.831
  Dynamic Indentation Hard.: 60.0 (0.4) Mpa
  Reduced Elastic Modulus: 5.1 (0.5) GPa
  Tensile Strength: 0.52 (0.03) Mpa
[3]; Quasistatic Indentation
  Quasistatic Indentation Hard.: 25.1 (1.3) Mpa
  Shear Modulus: 99.9 (19.1) Mpa
[3]; from dynamic indentation hardness
  ductility (in words): high (dynamic indentation hardness values below 100 Mpa are high)

## Span ® 60
[2]; Span 60 5.0, ascorbic 51.0, lactose 15, lactate 14 wt %
  Sertraline Dissolution Rate: 9.5 mg/ml-min
